Data as given in paper PMC9000710, “Synthesis and Hemostatic Activity of New Amide Derivatives” (Molecules, 2022).

Columns and labels:
[1] = Hemolysis assay (stability of erythrocytes); type: cell-based, human; conditions: male, human, heparinized whole blood diluted with saline (erythrocytes); for hemolysis at 45 min, 5 mg/L / hemolysis at 120 min, 5 mg/L / hemolysis at 240 min, 5 mg/L: c 5 mg/L; for hemolysis at 45 min, 500 mg/L / hemolysis at 120 min, 500 mg/L / hemolysis at 240 min, 500 mg/L: c 500 mg/L
Experimental: Heparinized whole blood was used from a healthy volunteer. The whole blood (10 mL) was diluted with saline solution (90 mL). For each UV-Vis measurement, 2.5 mL of diluted blood was used. For each blood sample, 1 mL of a saline solution containing hydrochlorides 1–8 at concentrations of 5, 50, and 500 mg/L was added. As a control were used blood samples with the addition of 1% solution of DMSO in saline and 1% solution of SDS in saline. In all cases, the measurements were repeated twice for each concentration. […] The cells were centrifuged, and the absorbance of the supernatant, which contained plasma and lysed erythrocytes, was measured at 540 nm. The percentage of lysis was calculated from a standard curve of lysed erythrocytes treated with SDS [52].

[2] = tested on: human blood plasma; assay: Prothrombin time (PT) clotting assay; type: biochemical
Experimental: (§1) Human blood plasma was isolated from fresh buffy coats (collected onto the citrate-dextrose solution—ACD) purchased from the Regional Centre of Blood Donation and Blood Treatment in Lodz, Poland. In the isolation procedure, the buffy coats (60 mL units) were divided into volumes of 10 mL and centrifuged (4000 rpm/15 min) in 15 mL tubes. Next, 1 mL solutions of each amide 1–8 were prepared in distilled water at concentrations of 10, 25, and 50 mg/L. Then, 450 μL of plasma and 50 μL of each amide at the tested concentrations were placed into 1.5 mL vials. The vials were vortexed (Vortex Biosan V-1 plus), incubated at 37 °C on a thermoblock (Dry Block Thermostat Biosan TDB-120), and analyzed using a Kselmed K-3002 OPTIC coagulometer (Grudziądz, Poland), based on the manufacturer’s protocols (described below). The control sample was native blood plasma, untreated with any of the examined substances.
(§2) Fifty microliters of control plasma and plasma samples treated with the amides were transferred to measuring cuvettes and placed in the thermoblock module (37 °C) of a coagulometer (KSELMED, K-3002 Optic). Then, 100 μL of Dia-PT reagent (DIAGON Kft. Hungary; cat. no. 81100) was added. Measurements were started immediately.

[3] = tested on: human blood plasma; assay: Activated partial thromboplastin time (aPTT) clotting assay; type: biochemical
Experimental: as §1
as §2, with “of the” for “of a”, “Then, 50” for “Then, 100”, “of Dia-APTT” for “of Dia-PT”, “no. 72048) was added. The mixture was incubated for 180 s at 37 °C. Finally, 50 μL of reagent Dia-CaCl2 (DIAGON Kft. Hungary; cat. no. 41192)” for “no. 81100)”

[4] = tested on: human blood plasma; assay: Thrombin time (TT) clotting assay; type: biochemical
Experimental: as §1
Both 100 μL of control plasma and plasma samples treated with the amides were transferred to measuring cuvettes, which were placed in the thermoblock module (37 °C) of the coagulometer (KSELMED K-3002 Optic). Then, 100 μL of thrombin solution (4.5 U/mL, in 0.9% NaCl; Biomed, Lublin, Poland) was added to the cuvette. Measurements were started immediately.

[5] = tested on: human blood plasma; assay: Clot formation and fibrinolysis (CFF) assay; type: biochemical; conditions: for Amax (maximum of fibrin clot absorbance at 360 nm) / VmaxC (of Fibrin Polymerization) / VmaxF (of Fibrin Clot Lysis): control plasma assumed as 100%, mean ± SD, n = 5–7
Description: The CFF assay enables analysis of both the blood plasma coagulation process and fibrinolysis efficiency. The thrombin enzyme in the reagent mixture initiates blood plasma fibrinogen polymerization, leading to an increase in absorbance in the sample until the maximal absorbance (Amax) is attained. The fibrinolytic activity of blood plasma is induced by the tissue-type plasminogen activator (t-PA). The activation of fibrinolysis in the tested samples leads to fibrin clot degradation and decreases the absorbance to the baseline.
Figure 11 An exemplary curve of blood plasma coagulation and clot lysis recorded during the clot formation and fibrinolysis (CFF) assay. The first step in the CFF test involves activation of the blood plasma coagulation cascade and fibrin clot formation (1). It is characterized by the maximal velocity of the fibrin polymerization parameter (VmaxC). The maximal absorbance (Amax) peak corresponds to the fibrin stabilization phase and is an indicator of fibrin clot thickness (2). The third step of the CFF assay covers the activation of fibrinolytic mechanisms and fibrin clot degradation (3) and is described by the maximal velocity of clot lysis (VmaxF).
Thrombin was purchased from BioMed (Lublin, Poland). A tissue-type plasminogen activator (Actilyse®) was purchased from Boehringer Ingelheim, Ingelheim am Rhein, Germany. Kinetic measurements were executed using a SpectrostarNano microplate spectrophotometer (BMG LabTech, Ortenberg, Germany).
Measurements were performed using a kinetic model, as described in our previous work. Briefly, blood plasma was preincubated with the examined substances (at final concentrations of 10, 25, and 50 mg/L) for 15 min at 37 °C. Then, 100 μL of blood plasma was added to microtiter plate wells, which was followed by 200 μL of the reagent mixture (0.75 U/mL thrombin, 225 ng/mL t-PA and 7.5 mM CaCl2) suspended in tris-buffered saline (0.05 M TBS, 0.9% NaCl; pH 7.4). Measurements of absorbance changes were started immediately and continued for 60 min at 37 °C, λ = 360 nm. The following parameters were used to determine the effects of the examined substances on the coagulation and fibrinolytic properties of the blood plasma: the maximal velocity of fibrinogen polymerization (VmaxC), which is an indicator of the plasma coagulation efficiency; the maximal absorbance (Amax), which is an indicator of the fibrin clot stabilization and its thickness; the maximal velocity of clot lysis (VmaxF), which is an indicator of blood plasma fibrinolytic activity.

Row | Structure (SMILES) | hemolysis at 45 min, 5 mg/L ([1]; 45 min) | hemolysis at 120 min, 5 mg/L ([1]; 120 min) | hemolysis at 240 min, 5 mg/L ([1]; 240 min) | hemolysis at 45 min, 50 mg/L ([1]; c 50 mg/L, 45 min) | hemolysis at 120 min, 50 mg/L ([1]; c 50 mg/L, 120 min) | hemolysis at 240 min, 50 mg/L ([1]; c 50 mg/L, 240 min) | hemolysis at 45 min, 500 mg/L ([1]; 45 min) | PT Time [% of Control] ([2]; c 10 mg/L) | PT Time [% of Control] ([2]; c 25 mg/L) | PT Time [% of Control] ([2]; c 50 mg/L) | aPTT Time [% of Control] ([3]; c 10 mg/L) | aPTT Time [% of Control] ([3]; c 25 mg/L) | aPTT Time [% of Control] ([3]; c 50 mg/L) | TT Time [% of Control] ([4]; c 10 mg/L) | TT Time [% of Control] ([4]; c 25 mg/L) | TT Time [% of Control] ([4]; c 50 mg/L) | Amax (maximum of fibrin clot absorbance at 360 nm) ([5]; 10 mg/L) | VmaxC (of Fibrin Polymerization) ([5]; 10 mg/L) | VmaxF (of Fibrin Clot Lysis) ([5]; 10 mg/L) | Amax (maximum of fibrin clot absorbance at 360 nm) ([5]; 25 mg/L) | also measured
1 | Cl.NCCCCCC(=O)NCc1ccc(C(=O)O)cc1 [Amide 2, 4-((6-Aminohexanamido)methyl)benzoic acid hydrochloride] | 0.41% | 0.21% | 0.65% | 0.11% | 0.74% | 0.3% | 1.03% | 97.0 ± 4.8 % of Control | 96.1 ± 2.2 % of Control | 95.5 ± 2.5 % of Control | 98.5 ± 8.0 % of Control | 101.0 ± 13.1 % of Control | 101.9 ± 14.0 % of Control | 99.0 ± 1.8 % of Control | 98.9 ± 4.7 % of Control | 95.9 ± 6.8 % of Control | 105.29 ± 6.41% | 103.26 ± 3.98% | 75.81 ± 17.04 % | 110.74 ± 4.86 % | hemolysis at 120 min, 500 mg/L ([1]; 120 min): 0.21%; hemolysis at 240 min, 500 mg/L ([1]; 240 min): 0.43%; prothrombin time, effect versus control in words ([2]; two higher concentrations (25 and 50 mg/L)): significantly decreased; VmaxC (of Fibrin Polymerization) ([5]; 25 mg/L): 106.30 ± 3.60 %; VmaxF (of Fibrin Clot Lysis) ([5]; 25 mg/L): 79.60 ± 10.55 %; Amax (maximum of fibrin clot absorbance at 360 nm) ([5]; 50 mg/L): 110.77 ± 9.85 %; VmaxC (of Fibrin Polymerization) ([5]; 50 mg/L): 105.59 ± 3.74 %; VmaxF (of Fibrin Clot Lysis) ([5]; 50 mg/L): 85.69 ± 8.80 %; effect on fibrin polymerization (VmaxC) in words ([5]; tested at 10, 25, 50 mg/L): Mild pro-coagulant effects; melting point: 199 to 201 °C
2 | Cl.NCC(=O)NCc1ccc(C(=O)O)cc1 [Amide 6, 4-((2-Aminoacetamido)methyl)benzoic acid hydrochloride] | 0.38% | 0.56% | 0.19% | 0% | 0.11% | 0.2% | 0.41% | 96.1 ± 4.4 % of Control | 95.8 ± 4.3 % of Control | 93.5 ± 7.1 % of Control | 96.1 ± 4.2 % of Control | 97.0 ± 3.5 % of Control | 98.3 ± 3.6 % of Control | 92.5 ± 3.0 % of Control | 92.3 ± 2.5 % of Control | 92.8 ± 4.2 % of Control | 105.45 ± 5.46% | 104.68 ± 3.05 % | 98.41 ± 14.71% | 102.41 ± 5.56% | hemolysis at 120 min, 500 mg/L ([1]; 120 min): 0.68%; hemolysis at 240 min, 500 mg/L ([1]; 240 min): 0.31%; TT, effect versus control in words ([4]; all used concentrations (10, 25, 50 mg/L)): shorter TT than the control sample; VmaxC (of Fibrin Polymerization) ([5]; 25 mg/L): 103.10 ± 6.82%; VmaxF (of Fibrin Clot Lysis) ([5]; 25 mg/L): 100.06 ± 21.96%; Amax (maximum of fibrin clot absorbance at 360 nm) ([5]; 50 mg/L): 102.15 ± 2.46%; VmaxC (of Fibrin Polymerization) ([5]; 50 mg/L): 101.11 ± 4.77%; VmaxF (of Fibrin Clot Lysis) ([5]; 50 mg/L): 91.08 ± 15.49%; melting point: 235 to 238 °C
3 | NCC(=O)NCC1CCC(C(=O)O)CC1 (centres unmarked) [Amide 7, 2-((((1s,4s)-4-Carboxycyclohexyl)methyl)amino)-2-oxoethanaminium chloride] | 0% | 0.21% | 0.21% | 0.41% | 0.97% | 0.64% | 0% | 95.4 ± 7.4 % of Control | 94.3 ± 9.7 % of Control | 95.3 ± 8.3 % of Control | 98.1 ± 4.6 % of Control | 99.3 ± 3.3 % of Control | 100.6 ± 4.9 % of Control | 97.2 ± 3.3 % of Control | 97.5 ± 2.5 % of Control | 96.9 ± 1.7 % of Control | 115.64 ± 11.61 % | 106.86 ± 9.49% | 66.18 ± 21.32 % | 120.06 ± 25.63 % | hemolysis at 45 min, 50 mg/L ([1]; c 50 mg/L as printed in the third concentration block of amides 7 and 8, 45 min): 0%; hemolysis at 120 min, 50 mg/L ([1]; c 50 mg/L as printed in the third concentration block of amides 7 and 8, 120 min): 0.23%; hemolysis at 240 min, 50 mg/L ([1]; c 50 mg/L as printed in the third concentration block of amides 7 and 8, 240 min): 0.38%; VmaxC (of Fibrin Polymerization) ([5]; 25 mg/L): 104.39 ± 8.60%; VmaxF (of Fibrin Clot Lysis) ([5]; 25 mg/L): 62.99 ± 16.99 %; Amax (maximum of fibrin clot absorbance at 360 nm) ([5]; 50 mg/L): 113.54 ± 13.76 %; VmaxC (of Fibrin Polymerization) ([5]; 50 mg/L): 111.45 ± 8.07 %; VmaxF (of Fibrin Clot Lysis) ([5]; 50 mg/L): 87.27 ± 8.04%; decrease of VmaxF ([5]; concentration not given): 30–40%; Amax parameter, effect in words ([5]; full range of tested concentrations (10–50 µg/mL)): significantly higher
